Results: patent publication US20230094471A1, “CYTOTOXIC BIS-BENZODIAZEPINE DERIVATIVES AND CONJUGATES THEREOF WITH CELL-BINDING AGENTS FOR INHIBITING ABNORMAL CELL GROWTH OR FOR TREATING PROLIFERATIVE DISEASES” (priority 2019, published 2023)
pIC50: −log10 of the molar value.

Tests used:
KB (cervical carcinoma) = assay: In vitro cytotoxicity assay (WST-8), KB cells; conditions: Homo sapiens, 120 h, read-out: IC50 values for free cytotoxic compounds, KB
Description: (§1) The following cell lines were used for the studies: KB (cervical carcinoma, ATCC), NCI-H2110 (Non Small Cell Lung Carcinoma, ATCC), Namalwa (Burkitt's lymphoma, ATCC), and T47D (breast epithelial cancer, ATCC). The cells were maintained and plated for the cytotox experiments in media recommended by the manufacturers. Cells were plated in the 96-well flat bottom plates at a seeding density of 1,000 cells per well (KB, Namalwa) or 2,000 cell per well (NCI H2110, T47D). […] To determine specificity of cytotoxic activity of the conjugates an excess of unconjugated antibody was added to a separate set of diluted conjugates (+block samples, IC50 table). The plates were incubated at 37° C., 5% CO2 for either 4 days (T47D cells) or 5 days (KB, NCI H2110 cells). Alamar blue assay (Invitrogen) was used to determine viability of T47D cells, and WST-8 assay (Donjindo Molecular Technologies, Inc.) was applied for viability of KB, NCI H2110, Namalwa cells. The assays were performed in accordance with the manufacturer's protocols. Killing curves and IC50 were generated using a sigmoidal dose-response nonlinear regression curve fit (GraphPad Software Inc.).

[1] = system: Namalwa (Burkitt's lymphoma); assay: In vitro cytotoxicity assay (WST-8), Namalwa cells; conditions: read-out: IC50 values for free cytotoxic compounds, Namalwa
Description: as §1

[2] = Phase I clinical evaluation (Hochhauser et al., 2009); cited from earlier work

| Compound | pIC50 (KB (cervical carcinoma)) | pIC50 [1] | maximum tolerated dose [2] |
| --- | --- | --- | --- |
| COc1cc2c(cc1OCCCCCOc1cc3c(cc1OC)C(=O)N1c4ccccc4C[C@H]1CN3)N=C[C@@H]1Cc3ccccc3N1C2=O [Compound 162] | 10.70 | 11.52 | – |
| COC(=O)c1cc(COc2cc3c(cc2OC)C(=O)N2c4ccccc4C[C@H]2C=N3)cc(COc2cc3c(cc2OC)C(=O)N2c4ccccc4C[C@H]2CN3)c1 [Compound 157] | 11.52 | 12.00 | – |
| COCCOCCOCCNc1cc(COc2cc3c(cc2OC)C(=O)N2c4ccccc4C[C@H]2C=N3)cc(COc2cc3c(cc2OC)C(=O)N2c4ccccc4C[C@H]2CN3)c1 [Compound 155] | 10.70 | 11.70 | – |
| COc1cc2c(cc1OCCCCCOc1cc3c(cc1OC)C(=O)N1Cc4ccccc4C[C@H]1CN3)N=C[C@@H]1Cc3ccccc3N1C2=O [Compound 108] | 10.30 | 11.00 | – |
| COc1cc2c(cc1OCCCCCOc1cc3c(cc1OC)C(=O)N1c4ccccc4C[C@H]1CN3)N=C[C@@H]1Cc3ccccc3CN1C2=O [Compound 123] | 11.52 | 12.00 | – |
| C=C1C[C@H]2C=Nc3cc(OCCCOc4cc5c(cc4OC)C(=O)N4CC(=C)C[C@H]4C=N5)c(OC)cc3C(=O)N2C1 [SJG-136] | – | – | 45 μg/m^2 |
| COc1cc2c(cc1OCc1cccc(COc3cc4c(cc3OC)C(=O)N3c5ccccc5C[C@H]3CN4)c1)N=C[C@@H]1Cc3ccccc3N1C2=O [Compound 150] | 11.10 | 12.00 | – |
| COc1cc2c(cc1OCCCOc1cc3c(cc1OC)C(=O)N1c4ccccc4C[C@H]1CN3)N=C[C@@H]1Cc3ccccc3N1C2=O [Compound 161] | 9.60 | 10.52 | – |
| COc1cc2c(cc1OCc1cccc(COc3cc4c(cc3OC)C(=O)N3c5ccccc5C[C@H]3CN4)n1)N=C[C@@H]1Cc3ccccc3N1C2=O [Compound 159] | 11.52 | 12.00 | – |
